Source: publication PMC5192521, “Flavin-Dependent Redox Transfers by the Two-Component Diketocamphane Monooxygenases of Camphor-Grown Pseudomonas putida NCIMB 10007” (Microorganisms, 2016)

Tests used:
[1] = test system: T1, Frp2 (28.5 kDa ferric reductase); assay: initial rate of A340 decrease, Lineweaver-Burk; type: biochemical, Pseudomonas putida; details: anaerobic, DCPIP as terminal acceptor
T1 construct: native purification from camphor-grown cells; chromosome-coded

[2] = test system: T2, Frp1 (27.0 kDa ferric reductase); assay: initial rate of A340 decrease, Lineweaver-Burk; type: biochemical, Pseudomonas putida; details: anaerobic, DCPIP as terminal acceptor
T2 construct: native purification from camphor-grown cells; chromosome-coded

[3] = biological target: T3, 3,6-DKCMO (3,6-diketocamphane monooxygenase; 36DKCMO) (Pseudomonas putida, UniProt D7UER1); assay: tryptophan fluorescence quenching titration (ex […] nm, em […] nm); type: binding
T3 construct: gene camE36; oxygenating subunit, native purification from camphor-grown cells; CAM plasmid-coded; homodimer; five Trp per monomer
T3 sequence (D7UER1 1-378): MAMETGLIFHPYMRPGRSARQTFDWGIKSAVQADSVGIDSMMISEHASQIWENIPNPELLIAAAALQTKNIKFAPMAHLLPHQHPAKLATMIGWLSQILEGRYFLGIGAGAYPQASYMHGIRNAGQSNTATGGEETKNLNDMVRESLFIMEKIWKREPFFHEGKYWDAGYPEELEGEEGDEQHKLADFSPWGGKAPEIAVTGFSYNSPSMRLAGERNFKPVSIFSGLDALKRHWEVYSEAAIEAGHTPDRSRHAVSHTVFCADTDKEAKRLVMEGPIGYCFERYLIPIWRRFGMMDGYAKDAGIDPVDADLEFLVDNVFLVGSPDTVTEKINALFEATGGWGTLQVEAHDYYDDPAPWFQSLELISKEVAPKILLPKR

[4] = biological target: T4, 2,5-DKCMO (2,5-diketocamphane monooxygenase; 25DKCMO); assay: as above; type: binding, Pseudomonas putida; details: anaerobic, 60 mM Tris/HCl pH 7.6, 10 µM enzyme; FNR made by photoreduction with EDTA
T4 construct: gene camE25-1; oxygenating subunit, native purification from camphor-grown cells; CAM plasmid-coded; homodimer; nine Trp per monomer

[5] = biological target: T3, 3,6-DKCMO (3,6-diketocamphane monooxygenase; 36DKCMO); assay: spectrophotometric titration at […] nm; type: binding
[6] = biological target: T4, 2,5-DKCMO (2,5-diketocamphane monooxygenase; 25DKCMO); assay: spectrophotometric titration at […] nm; type: binding, Pseudomonas putida; details: aerobic, Tris-HCl pH 7.6, 10 µM FMN
[7] = substrate: NC(=O)C1=CN([C@@H]2O[C@H](COP(=O)(O)OP(=O)(O)OC[C@H]3O[C@@H](n4cnc5c(N)ncnc54)[C@H](O)[C@@H]3O)[C@@H](O)[C@H]2O)C=CC1; assay: initial rate of A340 decrease, Lineweaver-Burk; type: biochemical, Pseudomonas putida; details: anaerobic
[8] = substrate: Cc1cc2nc3c(=O)[nH]c(=O)nc-3n(C[C@H](O)[C@H](O)[C@H](O)COP(=O)(O)O)c2cc1C; assay: initial rate of A340 decrease, Lineweaver-Burk; type: biochemical, Pseudomonas putida; details: anaerobic, 60 mM Tris/HCl pH 7.6, NADH as donor, cytochrome c as terminal acceptor
[9] = 60 mM Tris/HCl pH 7.6, FMN as acceptor
[10] = 60 mM Tris/HCl pH 7.6, NADH as donor
[11] = 60 mM Tris/HCl pH 7.6, 10 µM putidaredoxin plus 30 µM cytochrome c as acceptor

`NC(=O)C1=CN([C@@H]2O[C@H](COP(=O)(O)OP(=O)(O)OC[C@H]3O[C@@H](n4cnc5c(N)ncnc54)[C@H](OP(=O)(O)O)[C@@H]3O)[C@@H](O)[C@H]2O)C=CC1` [NADPH] was tested. Which Km [1, 9] did it give?
The Km was 92 µM.

With `NC(=O)C1=CN([C@@H]2O[C@H](COP(=O)(O)OP(=O)(O)OC[C@H]3O[C@@H](n4cnc5c(N)ncnc54)[C@H](O)[C@@H]3O)[C@@H](O)[C@H]2O)C=CC1` [NADH] as the molecule, how does the Km [1, 9] read?
The Km was 36 µM.

What about the Km [2, 9] of the same molecule?
Its Km is 23 µM.

Which Kd [3] does the source give for `Cc1cc2c(cc1C)N(C[C@H](O)[C@H](O)[C@H](O)COP(=O)(O)O)c1[nH]c(=O)[nH]c(=O)c1N2` [FNR] here?
Its Kd is 0.24 µM.

What about the Kd [4] of the same molecule?
The Kd was 0.21 µM.

With `Cc1cc2nc3c(=O)[nH]c(=O)nc-3n(C[C@H](O)[C@H](O)[C@H](O)COP(=O)(O)O)c2cc1C` [FMN] as the molecule, how does the Km [1, 10] read?
The Km was 8.6 µM.

What about the Kd [5] of the same molecule?
Its Kd is 125 µM.

And the Km [2, 10]?
Its Km is 6.9 µM.

And the Kd [6]?
Its Kd is 109 µM.

Which Km ([2]; 60 mM Tris/HCl pH 7.6, NADH as donor, kcat as printed although text calls FAD activity much lower) does the source give for `Cc1cc2nc3c(=O)[nH]c(=O)nc-3n(C[C@H](O)[C@H](O)[C@H](O)COP(=O)(O)OP(=O)(O)OC[C@H]3O[C@@H](n4cnc5c(N)ncnc54)[C@H](O)[C@@H]3O)c2cc1C` [FAD] here?
The Km was 68.8 µM.

B1: PdR (putidaredoxin reductase) (Pseudomonas putida) (protein)
chain: MNANDNVVIVGTGLAGVEVAFGLRASGWEGNIRLVGDATVIPHHLPPLSKAYLAGKATAESLYLRTPDAYAAQNIQLLGGTQVTAINRDRQQVILSDGRALDYDRLVLATGGRPRPLPVASGAVGKANNFRYLRTLEDAECIRRQLIADNRLVVIGGGYIGLEVAATAIKANMHVTLLDTAARVLERVTAPPVSAFYEHLHREAGVDIRTGTQVCGFEMSTDQQKVTAVLCEDGTRLPADLVIAGIGLIPNCELASAAGLQVDNGIVINEHMQTSDPLIMAVGDCARFHSQLYDRWVRIESVPNALEQARKIAAILCGKVPRDEAAPWFWSDQYEIGLKMVGLSEGYDRIIVRGSLAQPDFSVFYLQGDRVLAVDTVNRPVEFNQSKQIITDRLPVEPNLLGDESVPLKEIIAAAKAELSSA
notes: native purification from camphor-grown cells; FAD flavoprotein; CAM plasmid-coded
Which Km [7, 11] does the source give for B1 here?
Its Km is 5.9 µM.

And the kcat [7, 11]?
Its kcat is 102 s⁻¹.

B2: Fred (Pseudomonas putida) (protein)
chain: TKVAAEIVRSAIDPQWFRAVLGQYPTGVCAVTAMDPDGKMSGMAVGSFTSVSLNPPLVAFLPDRSSTSWPKIERAGKFCVNVLSDQQLGVCKRFASKDEDKFSGLVYRLSDNGSPIIEGVVAWIDCDLHSVQEAGDHYIVIGSVRELQVESEDSALLFYRGGYGGFAAI
notes: native purification from camphor-grown cells; chromosome-coded; 36 kDa homodimer
Which Km ([7]; 60 mM Tris/HCl pH 7.6, FMN as acceptor, cytochrome c as terminal acceptor) does the source give for B2 here?
The Km was 28 µM.

And the Km [8]?
Its Km is 4.2 µM.

And the kcat [8]?
The kcat was 294 s⁻¹.
